pEC50: −log10 of the molar value.
Target: Cell division control protein 42 homolog (Homo sapiens, UniProt P60953)
Experiment: inhibition of fluorescent GTP binding to Cdc42 wt – biochemical, bead-based multiplex flow cytometry, additional SAR set, SAR follow-up (AID 2022)
Conditions: not given

Cell division control protein 42 homolog, sequence (P60953 whole entry): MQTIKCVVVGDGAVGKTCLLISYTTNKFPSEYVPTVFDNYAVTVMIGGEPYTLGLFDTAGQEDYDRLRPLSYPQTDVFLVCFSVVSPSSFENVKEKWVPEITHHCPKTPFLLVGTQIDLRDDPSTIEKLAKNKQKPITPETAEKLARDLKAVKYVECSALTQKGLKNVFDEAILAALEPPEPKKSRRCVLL

Structure (SMILES) | pEC50
COc1cc(-c2c(C#N)c(N)n(S(=O)(=O)c3c(C(C)C)cc(C(C)C)cc3C(C)C)c2C(=O)c2ccccc2)cc(OC)c1OC [2-azanyl-5-(phenylcarbonyl)-4-(3,4,5-trimethoxyphenyl)-1-[2,4,6-tri(propan-2-yl)phenyl]sulfonyl-pyrrole-3-carbonitrile] | < 4.52
CC1=C(CC(=O)O)c2cc(F)ccc2/C1=C/c1ccc([S+](C)[O-])cc1 (stereo not given) [UNM-0000306136] | < 4.52
O=C1N=c2ccccc2=C1c1[nH]c2ccccc2c1NO [3-[3-(hydroxyamino)-1H-indol-2-yl]-2-indolone] | < 4.52
O=C(C#Cc1ccccc1)c1ccccc1 [UNM-0000306039] | < 4.52
O=C1Nc2c(Br)cccc2C1=C1Nc2ccccc2C1=O | < 4.52
O=C1Nc2ccccc2/C1=C1/Cc2ccccc2C1=O [UNM-0000305763] | < 4.52
O=C1Nc2ccc(Br)cc2C1=C1Nc2ccccc2C1=O | < 4.52
O=C1Nc2c(F)cccc2C1=C1Nc2ccccc2C1=O | < 4.52
O=C1NC(=O)/C(=C2/C(=O)Nc3ccccc32)N1 | < 4.52
O=C(C#Cc1ccccc1)c1cccnc1 [3-phenyl-1-pyridin-3-ylprop-2-yn-1-one] | < 4.52
O=C1N=c2c(Br)cccc2=C1c1[nH]c2ccccc2c1NO [7-bromanyl-3-[3-(oxidanylamino)-1H-indol-2-yl]indol-2-one] | < 4.52
C[C@@H](C(=O)O)c1cccc(Oc2ccccc2)c1 [calcium;2-(3-phenoxyphenyl)propanoic acid;hydrate] | < 4.52
O=C1NC(=S)N/C1=C1\C(=O)Nc2ccccc21 [(3Z)-3-(5-oxo-2-sulfanylideneimidazolidin-4-ylidene)-1H-indol-2-one] | < 4.52
COc1ccc(C(=O)C#Cc2ccccc2)cc1 [1-(4-methoxyphenyl)-3-phenyl-2-propyn-1-one] | < 4.52
O=C1Nc2ccccc2/C1=C1/Nc2ccccc2C1=O [2-[(3Z)-2-oxo-2,3-dihydro-1H-indol-3-ylidene]-2,3-dihydro-1H-indol-3-one] | < 4.52
O=C(C#Cc1ccccc1)c1ccc([N+](=O)[O-])cc1 [1-(4-nitrophenyl)-3-phenyl-2-propyn-1-one] | < 4.52
O=C(C#Cc1ccccc1)c1ccc(F)cc1 [UNM-0000306059] | < 4.52
COc1ccc(S(=O)(=O)n2c(N)c(C#N)c(-c3cc(Br)c(OC)c(OC)c3)c2C(=O)c2ccccc2)cc1 [UNM-0000305782] | < 4.52
O=C(C#Cc1ccccc1)c1ccc(Cl)cc1 [UNM-0000306055] | < 4.52
COC(=O)c1ccc(C(=O)C#Cc2ccccc2)cc1 [4-(1-oxo-3-phenylprop-2-ynyl)benzoic acid methyl ester] | < 4.52
CSc1ccc(/C=C2/C(C)=C(CC(=O)O)c3cc(F)ccc32)cc1 [{6-Fluoro-2-methyl-3-[1-(4-methylsulfanyl-phenyl)-meth-(E)-ylidene]-3H-inden-1-yl}-acetic acid] | < 4.52

The next lines start with the values.

pEC50 | Structure (SMILES)
< 4.52 | CC(C(=O)O)c1cccc(C(=O)c2ccccc2)c1 (stereo not given) [2-(3-benzoylphenyl)propanoic acid]
< 4.52 | CCCCS(=O)(=O)n1c(N)c(C#N)c(-c2cc(OC)c(OC)c(OC)c2)c1C(=O)c1ccccc1 [2-amino-5-benzoyl-1-butylsulfonyl-4-(3,4,5-trimethoxyphenyl)-3-pyrrolecarbonitrile]
< 4.52 | O=C1N=c2ccc(Br)cc2=C1c1[nH]c2ccccc2c1NO [5-bromanyl-3-[3-(oxidanylamino)-1H-indol-2-yl]indol-2-one]
< 4.52 | N#Cc1ccc(C(=O)C#Cc2ccccc2)cc1 [4-(3-phenylprop-2-ynoyl)benzenecarbonitrile]
< 4.52 | O=C1Nc2cccc(Br)c2/C1=C1/Cc2ccccc2C1=O
< 4.52 | CC(=O)Oc1ccccc1C(=O)O [2-(acetyloxy)benzoic acid]
< 4.52 | COc1ccc2cc(CC(=O)O)ccc2c1 [2-(6-methoxynaphthalen-2-yl)ethanoic acid]
< 4.52 | O=[N+]([O-])c1ccc(C#Cc2ccccc2)cc1
4.64 | COc1ccc(S(=O)(=O)n2c(N)c(C#N)c(-c3cncc(Br)c3)c2C(=O)c2ccccc2)cc1 [2-amino-5-benzoyl-4-(5-bromo-3-pyridinyl)-1-(4-methoxyphenyl)sulfonyl-3-pyrrolecarbonitrile]
< 4.52 | O=C1Nc2c(Br)cccc2/C1=C1/Cc2ccccc2C1=O [(3E)-7-bromo-3-(3-oxo-1H-inden-2-ylidene)-1H-indol-2-one]
< 4.52 | O=C1N=c2c(Cl)cccc2=C1c1[nH]c2ccccc2c1NO [7-chloro-3-[3-(hydroxyamino)-1H-indol-2-yl]-2-indolone]
< 4.52 | O=C(C#Cc1ccccc1)c1ccccc1[N+](=O)[O-] [UNM-0000306038]
< 4.52 | COc1ccc(S(=O)(=O)n2c(N)c(C#N)c(-c3ccccc3)c2C(=O)c2ccc(Br)cc2)cc1
< 4.52 | O=C(C#Cc1ccccc1)c1ccc(OC(F)(F)F)cc1
7.57 | O=C1Nc2c(Cl)cccc2C1=C1Nc2ccccc2C1=O
4.55 | O=C1N=c2c(F)cccc2=C1c1[nH]c2ccccc2c1NO [7-fluoro-3-[3-(hydroxyamino)-1H-indol-2-yl]-2-indolone]

Same assay, conditions: inactive by the depositor's call

pEC50 | Structure (SMILES)
4.78 | CC(C)Cc1ccc([C@H](C)C(=O)O)cc1 [(S)-2-(4-Isobutyl-phenyl)-propionic acid]
4.95 | COc1ccc(-c2c(C#N)c(N)n(S(C)(=O)=O)c2C(=O)c2ccccc2)cc1Br [2-azanyl-4-(3-bromanyl-4-methoxy-phenyl)-1-methylsulfonyl-5-(phenylcarbonyl)pyrrole-3-carbonitrile]
5.14 | N#Cc1c(-c2ccc(Cl)cc2)c(C(=O)c2ccccc2)n(S(=O)(=O)c2ccc([N+](=O)[O-])cc2)c1N [UNM-0000305780]
